According to patent US20130104445A1, “ESSENTIAL OILS AND THEIR COMPOUNDS AS STINK BUG REPELLENTS” (priority 2011, published 2013):

System: BMSB adult or nymph antenna
Experiment: GC-EAD antennal responses to essential oil headspace (SPME) or synthetic SSB pheromone mixture
Set-up: species or system Halyomorpha halys
Description: Headspace volatiles from several essential oils (1 ml each in a closed 20 ml glass vial) were sampled via Solid-Phase Micro-Extraction (SPME) (CAR/PDMS, 85 μm, Supelco, Bellefonte, Pa.) for 30 sec before GC-EAD and GC-MS analyses.
BMSB nymphs and adults for electrophysiological study were taken from a lab colony originally collected from Pennsylvania, U.S.A., during the overwintering period.
SPME samples of the various essential oils were injected splitless into a Varian CP-3800 GC equipped with a polar column (HP-INNOWAX; 30 m×0.53 mm×1.0 μm film thickness; Agilent Technologies, Wilmington, Del., USA) and a 1:1 effluent splitter that allowed simultaneous flame ionization detection (FID) and electroantennographic detection (EAD) of BMSB adult or nymph antenna to the separated volatile compounds. Helium was used as the carrier gas, and the injector and detector temperatures were 250° C. and 300° C., respectively. Column temperature was 50° C. for 1 min, rising to 240° C. at 10° C./min, and then held for 10 min. The outlet for the EAD was held in a humidified air stream flowing at 0.5 m/sec over the antennal preparation. EAD recordings were made using silver wire-glass capillary electrodes filled with Beadle-Ephrussi Ringer on freshly cut antennae. The antennal signals were stored and analyzed on a PC equipped with a serial IDAC interface box and the program EAD ver. 2.5 (Syntech, Hilversum, The Netherlands). The same GC-EAD recording procedure was also employed on the BMSB antennae against a synthetic mixture of the Spined soldier bug aggregation pheromone components (trans-2-hexenal, benzyl alcohol, and α-terpineol; 200 ng/μl each in hexane, 2 μl injected).
Antennally active compounds (FID peaks) in the SPME samples of essential oils were identified by GC-MS on an HP 6890 GC series coupled with an HP 5973 Mass Selective Detector using the same type of GC column and conditions as described above. Compounds were identified by comparison of retention times with those of authentic standards and with mass spectra of standards.

[1] = from the lemongrass oil, FIG. 4
[2] = synthetic mixture of SSB aggregation pheromone components, FIG. 12

## CC12CCC(CC1)C(C)(C)O2 [1,8-cineole]
From rosemary oil, FIG. 8
  EAD response of BMSB antennae: significant (strongly or weakly) EAD-responses

## COc1ccc(C)cc1 [4-methylanisole]
From ylang ylang oil, FIG. 7
  EAD response of BMSB antennae: significant (strongly or weakly) EAD-responses

## CCCCCC(=O)CCC [4-nonanone]
[1]
  EAD response of BMSB antennae: weakly

## CC(C)=CCC/C(C)=C/C=O [E-citral]
[1]
  EAD response of BMSB antennae: strongly responded

## CC(C)=CCC/C(C)=C\C=O [Z-citral]
[1]
  EAD response of BMSB antennae: strongly responded

## CC(=O)OCc1ccccc1 [benzyl acetate]
From ylang ylang oil, FIG. 7
  EAD response of BMSB antennae: significant (strongly or weakly) EAD-responses

## OCc1ccccc1 [benzyl alcohol]
[2]
  EAD response of BMSB antennae: strong antennal responses

## CC12CCC(CC1=O)C2(C)C (stereo not drawn) [camphor]
From rosemary oil, FIG. 8
  EAD response of BMSB antennae: significant (strongly or weakly) EAD-responses

## C=CCc1ccc(O)c(OC)c1 [eugenol]
From clove oil, FIG. 6
  EAD response of BMSB antennae: significant (strongly or weakly) EAD-responses

## CC(C)=CCC/C(C)=C/CO [geraniol]
From geranium oil, FIG. 10
  EAD response of BMSB antennae: significant (strongly or weakly) EAD-responses

## COC(=O)c1ccccc1 [methyl benzoate]
From ylang ylang oil, FIG. 7
  EAD response of BMSB antennae: significant (strongly or weakly) EAD-responses

## COC(=O)c1ccccc1O [methyl salicylate]
From wintergreen oil, FIG. 9
  EAD response of BMSB antennae: significant (strongly or weakly) EAD-responses

## CC(C)=C1CC[C@@H](C)CC1=O [pulegone]
From pennyroyal oil, FIG. 11
  EAD response of BMSB antennae: significant (strongly or weakly) EAD-responses

## CCC/C=C/C=O [trans-2-hexenal]
[2]
  EAD response of BMSB antennae: strong antennal responses

## CC1=CCC(C(C)(C)O)CC1 (stereo not drawn) [α-terpineol]
[2]
  EAD response of BMSB antennae: weak activity

## C=C1CC[C@@H]2[C@H]1[C@H]1[C@H](C(C)C)CC[C@]12C [β-bourbernene]
From geranium oil, FIG. 10
  EAD response of BMSB antennae: significant (strongly or weakly) EAD-responses

## CC(C)=CCCC(C)CCO (stereo not drawn) [β-citronellol]
From geranium oil, FIG. 10
  EAD response of BMSB antennae: significant (strongly or weakly) EAD-responses

## P/I-menthones
From geranium oil, FIG. 10
  EAD response of BMSB antennae: significant (strongly or weakly) EAD-responses
From pennyroyal oil, FIG. 11
  EAD response of BMSB antennae: significant (strongly or weakly) EAD-responses

## cis/trans-rose oxides
From geranium oil, FIG. 10
  EAD response of BMSB antennae: significant (strongly or weakly) EAD-responses

## l-carvone
From spearmint oil, FIG. 5
  EAD response of BMSB antennae: significant (strongly or weakly) EAD-responses
